# According to article PMC6735221, “A phase Ib dose-finding, pharmacokinetic study of the focal adhesion kinase inhibitor GSK2256098 and trametinib in patients with advanced solid tumours” (British Journal of Cancer, 2019):
# Like-named read-outs stand apart in the source and are kept apart here.
# How the values were obtained:
# [1] = GSK2256098 pharmacokinetics, whole blood, Day 15; type: in vivo, human; settings: for Cmax: read-out: Cmax, Geometric mean (%CV); for Tmax: read-out: tmax, Median (range)
# Experimental: (§1) Approximately 15 μL blood was then transferred from the “end-to-end” EDTA capillary tube onto the Whatman FTA DBS card.
# [2] = GSK2256098 pharmacokinetics, dry blood spot, Day 15; type: in vivo; settings: human, oral; for Cmax: read-out: Cmax, Geometric mean (%CV); for Tmax: read-out: tmax, Median (range)
# Experimental: as §1
# [3] = test system: Merlin-negative (encoded by NF-2) mesothelioma cells; set-up: method as in doi:10.1016/S0959-8049(12)72185-8; settings: preclinical studies; cited from earlier work
# [4] = test system: human carboxylesterases (eg, hCES1b, hCES1c, and hCES2); set-up: method as in GSK data on file; settings: in vitro investigation; ref GSK data on file; cited from earlier work
# [5] = test system: mesothelioma; set-up: method as in PMID 27733373; settings: GSK2256098 monotherapy, phase I; cited from earlier work
# [6] = Adverse events (CTCAE v4.0) in patients; settings: diarrhoea, lower respiratory tract infection, nausea, vomiting
# Experimental: (§2) AEs were assessed throughout the study using the National Cancer Institute Common Terminology Criteria for Adverse Events v4.0 guidelines.[13]
# (§3) Haematology and clinical chemistry laboratory tests were performed at baseline, Days 1, 8, 15, 22, 29, and every 4 weeks thereafter. Electrocardiograms were performed at baseline, Days 1, 15, 22, and then every 8 weeks from Day 1.
# [7] = human, in vivo
# Experimental: as §2, §3
# [8] = human, in vivo; remark: listed apart in the source
# Experimental: Blood samples for pharmacokinetic analysis were collected prior to morning dosing of GSK2256098 on Day 15, and at 1, 1.5, 2, 4, 6, 8 h after the morning dose of GSK2256098. Trametinib was administered immediately after the 1.5-hour pharmacokinetic sample was collected.
# For PK analysis of trametinib, blood samples were taken via an indwelling cannula (or by direct venepuncture), collected into a di-potassium ethylenediaminetetraacetic acid (K2-EDTA) tube and immediately placed on water ice. Blood samples stored on wet ice were centrifuged within 1 h of collection at approximately 1500 g for 10 min at 4 °C. Supernatant plasma was transferred to a 3.6 mL Nunc tube and stored at 20 °C before shipment. Samples were shipped frozen on dry ice at agreed timepoints throughout the study to GSK Pharmaceuticals, Upper Merion, PA, USA, for analysis.
# Plasma samples were analysed for trametinib using the validated analytical method based on liquid-liquid extraction, followed by high-performance liquid chromatography mass spectrometry (HPLC-MS/MS) analysis using a TurboIonSpray interface and multiple reaction monitoring. The lower limit of quantification (LLQ) for trametinib was 0.25 ng/mL using a 50-mL aliquot of human plasma with a higher limit of quantification (HLQ) of 250 ng/mL. Blood samples were analysed for GSK2256098 using a validated analytical method based on acetonitrile extraction from dried blood spots on the Whatman FTA DBS card, followed by HPLC/MS/MS analysis using a TurboIonSpray interface and multiple reaction monitoring. The LLQ for GSK2256098 was 10 ng/mL using a 3-mm diameter.
# GSK2256098 whole-blood and dry blood spot concentration-time data as well as trametinib plasma concentration-time data were analysed by standard noncompartmental methods using Phoenix WinNonlin version 6.3. Calculations of all Pharmacokinetic parameters were based on doses of GSK2256098 and trametinib administered and actual sampling times from the respective dosing.
# [9] = set-up: method as in PMID 22805291; settings: Trametinib 2.0 mg monotherapy (n = 13), plasma; cited from earlier work
# [10] = human, oral, GSK2256098 250 mg (n = 10) with trametinib, whole blood, Day 15
# [11] = human, oral, GSK2256098 500 mg (n = 21) with trametinib, whole blood, Day 15
# [12] = GSK2256098 250 mg (n = 6) with trametinib
# [13] = GSK2256098 500 mg (n = 10) with trametinib
smiles,measurement,setting,value
CONC(=O)c1ccccc1Nc1cc(Nc2cc(C)nn2C(C)C)ncc1Cl [GSK2256098],AUC,"[1]; human, oral, GSK2256098 250 mg (n = 10) with trametinib, whole blood, Day 15, read-out: AUC(0–τ), Geometric mean (%CV)",5470 ng·h/mL
same,Cmax,[1]; [10],1400 ng/mL
same,Tmax,[1]; [10],2 h
same,Cmax,[1]; [11],2450 ng/mL
same,Tmax,[1]; [11],2 h
same,median time to Cmax (tmax),"[1]; post-dose, across dose groups, with trametinib",~2 h
same,exposure of GSK2256098 when co-administered with trametinib,[1]; versus previous monotherapy study,not altered
same,AUC,"[2]; GSK2256098 250 mg (n = 6) with trametinib, read-out: AUC(0–τ), Geometric mean (%CV)",4980 ng·h/mL
same,Cmax,[2]; [12],1230 ng/mL
same,Tmax,[2]; [12],2.8 h
same,Cmax,[2]; [13],2830 ng/mL
same,Tmax,[2]; [13],2 h
same,MTD in combination,"high GSK2256098/low trametinib MTD, GSK2256098 part",500 mg BID
same,MTD in combination,"low GSK2256098/high trametinib MTD, GSK2256098 part",250 mg BID
same,activity in vitro in Merlin-negative versus Merlin-positive mesothelioma cells,[3],at least 20 times
same,effect on deacetylation of trametinib by human carboxylesterases,[4],inhibits deacetylation of trametinib
same,PFS of Merlin-negative versus Merlin-positive mesothelioma patients,[5],nearly twice
same,relation of the most common serious AEs to GSK2256098,[6],none of these were considered related to GSK2256098
CC(=O)Nc1cccc(-n2c(=O)n(C3CC3)c(=O)c3c(Nc4ccc(I)cc4F)n(C)c(=O)c(C)c32)c1 [trametinib],MTD in combination,"high GSK2256098/low trametinib MTD, trametinib part",0.375 mg QD
same,MTD in combination,"low GSK2256098/high trametinib MTD, trametinib part",0.5 mg QD
same,subjects with an SAE that could be attributed to trametinib,[7],15%
same,Trametinib exposure (Cmax and AUC) with GSK2256098 versus trametinib monotherapy,[8],2- to 4 fold
same,median time to Cmax (tmax),[8],1.5 to 2.5 h
same,tmax of trametinib with GSK2256098 co-administration,[8],slightly delayed
same,"Cmax, Geometric mean (%CV)",[9],22.2 (28) ng/mL
same,"tmax, Median (range)",[9],1.75 (1.0–3.0) h
